Assay results reported in PubChem BioAssay (NCI).
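Tested at 5 concentrations; 48 h exposure; 96-well plates; endpoints linearly interpolated, else capped at highest concentration. GI50: concentration for 50% inhibition of growth. TGI denotes the concentration required for complete inhibition of growth.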

Assays:
Assay in all cases: NCI-60 cell line screen, 48 h
MOLT-4 leukemia = system: MOLT-4 leukemia
NCI/ADR-RES ovarian = system: NCI/ADR-RES ovarian
U251 CNS = system: U251 CNS
SR leukemia = system: SR leukemia
A498 renal = system: A498 renal
PC-3 prostate = system: PC-3 prostate
DU-145 prostate = system: DU-145 prostate
SNB-19 CNS = system: SNB-19 CNS
UACC-257 melanoma = system: UACC-257 melanoma
SF-539 CNS = system: SF-539 CNS
SK-OV-3 ovarian = system: SK-OV-3 ovarian
ACHN renal = system: ACHN renal
SK-MEL-5 melanoma = system: SK-MEL-5 melanoma
KM12 colon = system: KM12 colon
NCI-H522 lung = system: NCI-H522 lung
MCF7 breast = system: MCF7 breast
RXF 393 renal = system: RXF 393 renal
SK-MEL-2 melanoma = system: SK-MEL-2 melanoma
LOX IMVI melanoma = system: LOX IMVI melanoma
HCT-116 colon = system: HCT-116 colon
HOP-92 NSCLC = system: HOP-92 NSCLC
M14 melanoma = system: M14 melanoma
HT29 colon = system: HT29 colon
SW-620 colon = system: SW-620 colon
HCT-15 colon = system: HCT-15 colon
HL-60(TB) leukemia = system: HL-60(TB) leukemia
SNB-75 CNS = system: SNB-75 CNS
UO-31 renal = system: UO-31 renal
TK-10 renal = system: TK-10 renal
NCI-H460 lung = system: NCI-H460 lung
K-562 leukemia = system: K-562 leukemia
EKVX NSCLC = system: EKVX NSCLC
SK-MEL-28 melanoma = system: SK-MEL-28 melanoma
OVCAR-8 ovarian = system: OVCAR-8 ovarian
SF-295 CNS = system: SF-295 CNS
COLO 205 colon = system: COLO 205 colon
UACC-62 melanoma = system: UACC-62 melanoma
NCI-H23 lung = system: NCI-H23 lung
NCI-H226 lung = system: NCI-H226 lung
A549 NSCLC = system: A549 NSCLC
HCC-2998 colon = system: HCC-2998 colon
SN12C renal = system: SN12C renal
SF-268 CNS = system: SF-268 CNS
HS 578T breast = system: HS 578T breast
OVCAR-4 ovarian = system: OVCAR-4 ovarian
OVCAR-3 ovarian = system: OVCAR-3 ovarian
RPMI-8226 leukemia = system: RPMI-8226 leukemia
786-0 renal = system: 786-0 renal
CCRF-CEM leukemia = system: CCRF-CEM leukemia
BT-549 breast = system: BT-549 breast
MDA-MB-231 breast = system: MDA-MB-231 breast
IGROV1 ovarian = system: IGROV1 ovarian
OVCAR-5 ovarian = system: OVCAR-5 ovarian
MDA-MB-435 = system: MDA-MB-435
HOP-62 NSCLC = system: HOP-62 NSCLC

COc1cc2cc(c1Cl)N(C)C(=O)C[C@H](OC(=O)[C@H](C)N(C)C(=O)CCS)C[C@]1(C)O[C@H]1[C@H](C)[C@@H]1C[C@@](O)(NC(=O)O1)[C@H](OC)/C=C/C=C(\C)C2
GI50 (MOLT-4 leukemia): < 0.005 µM
TGI (MOLT-4 leukemia): > 50 µM
GI50 (NCI/ADR-RES ovarian): 0.0244 µM
TGI (NCI/ADR-RES ovarian): 34.8 µM
GI50 (U251 CNS): < 0.005 µM
TGI (U251 CNS): > 32.9 µM
GI50 (SR leukemia): < 0.005 µM
TGI (SR leukemia): > 50 µM
GI50 (A498 renal): < 0.005 µM
TGI (A498 renal): 0.496 µM
GI50 (PC-3 prostate): < 0.005 µM
TGI (PC-3 prostate): > 50 µM
GI50 (DU-145 prostate): < 0.005 µM
TGI (DU-145 prostate): > 50 µM
GI50 (SNB-19 CNS): < 0.005 µM
TGI (SNB-19 CNS): > 50 µM
GI50 (UACC-257 melanoma): > 50 µM
TGI (UACC-257 melanoma): > 50 µM
GI50 (SF-539 CNS): < 0.005 µM
TGI (SF-539 CNS): 0.0674 µM
GI50 (SK-OV-3 ovarian): < 0.005 µM
TGI (SK-OV-3 ovarian): > 50 µM
GI50 (ACHN renal): < 0.005 µM
TGI (ACHN renal): > 50 µM
GI50 (SK-MEL-5 melanoma): < 0.005 µM
TGI (SK-MEL-5 melanoma): 0.0628 µM
GI50 (KM12 colon): < 0.005 µM
TGI (KM12 colon): > 50 µM
GI50 (NCI-H522 lung): < 0.005 µM
TGI (NCI-H522 lung): 0.0426 µM
GI50 (MCF7 breast): < 0.005 µM
TGI (MCF7 breast): > 50 µM
GI50 (RXF 393 renal): 0.00644 µM
TGI (RXF 393 renal): > 50 µM
GI50 (SK-MEL-2 melanoma): < 0.005 µM
TGI (SK-MEL-2 melanoma): > 50 µM
GI50 (LOX IMVI melanoma): < 0.005 µM
TGI (LOX IMVI melanoma): > 22.9 µM
GI50 (HCT-116 colon): < 0.005 µM
TGI (HCT-116 colon): 5.78 µM
GI50 (HOP-92 NSCLC): < 0.005 µM
TGI (HOP-92 NSCLC): 49.6 µM
GI50 (M14 melanoma): < 0.005 µM
TGI (M14 melanoma): < 0.005 µM
GI50 (HT29 colon): < 0.005 µM
TGI (HT29 colon): > 50 µM
GI50 (SW-620 colon): < 0.005 µM
TGI (SW-620 colon): > 50 µM
GI50 (HCT-15 colon): 0.00624 µM
TGI (HCT-15 colon): > 50 µM
GI50 (HL-60(TB) leukemia): < 0.005 µM
TGI (HL-60(TB) leukemia): < 0.005 µM
GI50 (SNB-75 CNS): < 0.005 µM
TGI (SNB-75 CNS): > 50 µM
GI50 (UO-31 renal): 0.0282 µM
TGI (UO-31 renal): > 50 µM
GI50 (TK-10 renal): > 17.1 µM
TGI (TK-10 renal): > 50 µM
GI50 (NCI-H460 lung): < 0.005 µM
TGI (NCI-H460 lung): > 30.8 µM
GI50 (K-562 leukemia): < 0.005 µM
TGI (K-562 leukemia): > 50 µM
GI50 (EKVX NSCLC): 0.00951 µM
TGI (EKVX NSCLC): > 50 µM
GI50 (SK-MEL-28 melanoma): 3.47 µM
TGI (SK-MEL-28 melanoma): > 50 µM
GI50 (OVCAR-8 ovarian): 0.0083 µM
TGI (OVCAR-8 ovarian): > 50 µM
GI50 (SF-295 CNS): < 0.005 µM
GI50 (COLO 205 colon): < 0.005 µM
TGI (COLO 205 colon): 0.0257 µM
GI50 (UACC-62 melanoma): < 0.005 µM
TGI (UACC-62 melanoma): > 50 µM
GI50 (NCI-H23 lung): 0.00804 µM
TGI (NCI-H23 lung): > 50 µM
GI50 (NCI-H226 lung): 0.038 µM
TGI (NCI-H226 lung): > 50 µM
GI50 (A549 NSCLC): 0.00752 µM
TGI (A549 NSCLC): > 50 µM
GI50 (HCC-2998 colon): 0.00609 µM
TGI (HCC-2998 colon): > 50 µM
GI50 (SN12C renal): < 0.005 µM
TGI (SN12C renal): > 50 µM
GI50 (SF-268 CNS): 0.00954 µM
TGI (SF-268 CNS): > 50 µM
GI50 (HS 578T breast): 0.0164 µM
TGI (HS 578T breast): > 32 µM
GI50 (OVCAR-4 ovarian): 0.0218 µM
TGI (OVCAR-4 ovarian): > 50 µM
GI50 (OVCAR-3 ovarian): < 0.005 µM
TGI (OVCAR-3 ovarian): > 50 µM
GI50 (RPMI-8226 leukemia): < 0.005 µM
TGI (RPMI-8226 leukemia): 21.6 µM
GI50 (786-0 renal): 0.00906 µM
TGI (786-0 renal): > 24.7 µM
GI50 (CCRF-CEM leukemia): < 0.005 µM
TGI (CCRF-CEM leukemia): > 50 µM
GI50 (BT-549 breast): < 0.005 µM
TGI (BT-549 breast): 0.134 µM
GI50 (MDA-MB-231 breast): 0.00681 µM
TGI (MDA-MB-231 breast): 1.61 µM
GI50 (IGROV1 ovarian): 0.00762 µM
TGI (IGROV1 ovarian): > 50 µM
GI50 (OVCAR-5 ovarian): 0.00994 µM
TGI (OVCAR-5 ovarian): > 50 µM
GI50 (MDA-MB-435): < 0.005 µM
TGI (MDA-MB-435): < 0.005 µM
GI50 (HOP-62 NSCLC): < 0.005 µM
TGI (HOP-62 NSCLC): > 50 µM
